These are literature values, as cited in US7829544B2, “Aqueous solution preparation containing aminoglycoside antibiotic and bromfenac” (Senju Pharmaceutical Co., Ltd., priority 2003, dated 2010).

The conditions of the series: tobramycin combined with diclofenac sodium.

As to `NC[C@H]1O[C@H](O[C@H]2[C@H](O)[C@@H](O[C@H]3O[C@H](CO)[C@@H](O)[C@H](N)[C@H]3O)[C@H](N)C[C@@H]2N)[C@H](N)C[C@@H]1O` [tobramycin], the “behaviour of the combination solution” value is reported as “precipitation or suspension formation occurs”.
